Source: patent US10681909B2, “Herbicidal triazoles” (FMC Corporation, priority 2014, dated 2020)

How the values were obtained:
[1] = test system: crabgrass, large; assay: Test A preemergence; format: in vivo, Digitaria sanguinalis; conditions: Digitaria sanguinalis, pre-emergence, 240 h, 0 to 100 scale (0 no effect, 100 complete control), read-out: Plant response rating, Crabgrass, Large; for pest or weed control at 125 g/ha: 125 g ai/ha; for pest or weed control at 500 g/ha: 500 g ai/ha, approx. 10 d
Outline: (§1)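 Loam/sand soil mix; compound in non-phytotoxic solvent + surfactant. Pre: directed soil spray right after planting seed. Post: potted plants 2–10 cm, 1–2 leaf stage, sprayed with same formulation.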

[2] = test system: morningglory; assay: Test A postemergence; format: in vivo, Ipomoea spp.; conditions: Ipomoea, post-emergence, 240 h, 0 to 100 scale (0 no effect, 100 complete control), approx. 10 d, read-out: Plant response rating, Morningglory; for pest or weed control at 125 g/ha: 125 g ai/ha; for pest or weed control at 500 g/ha: 500 g ai/ha
Outline: as §1

[3] = test system: crabgrass, large; assay: Test C preemergence; format: in vivo, Digitaria sanguinalis; conditions: for Plant response rating (scale of 0 to 100 where 0 is no effect and 100 is complete control): Crabgrass, Large, preemergence; for Crabgrass, Large plant response rating (0 to 100): Preemergence, visual rating after 13 to 15 d
From the text: (§2) Seeds of plant species selected from blackgrass (Alopecurus myosuroides), ryegrass, Italian (Italian ryegrass, Lolium multiflorum), wheat (winter wheat, Triticum aestivum), galium (catchweed bedstraw, Galium aparine), corn (Zea mays), crabgrass, large (large crabgrass, Digitaria sanguinalis), foxtail, giant, (giant foxtail, Setaria faberii), johnsongrass (Sorghum halepense), lambsquarters (Chenopodium album), morningglory (Ipomoea coccinea), nutsedge, yellow (yellow nutsedge, Cyperus esculentus), pigweed (Amaranthus retroflexus), ragweed (common ragweed, Ambrosia elatior), soybean (Glycine max), barnyardgrass (Echinochloa crus-galli), oilseed rape (Brassica napus), waterhemp (common waterhemp, Amaranthus rudis), and velvetleaf (Abutilon theophrasti) were planted into a blend of loam soil and sand and treated preemergence with test chemicals formulated in a non-phytotoxic solvent mixture which included a surfactant. At the same time, plants selected from these crop and weed species and also chickweed (common chickweed, Stellaria media), oat, wild (wild oat, Avena fatua), and kochia (Kochia scoparia), were planted in pots containing Sunshine Redi-Earth® planting medium comprising spaghnum peat moss, vermiculite, starter nutrients and dolomitic limestone and treated with postemergence applications of test chemicals formulated in the same manner. Plants ranged in height from 2 to 18 cm (1- to 4-leaf stage) for postemergence treatments. […] A dash (-) response means no test result.

[4] = test system: lambsquarters; assay: Test C preemergence; format: in vivo, Chenopodium album; conditions: for Plant response rating (scale of 0 to 100 where 0 is no effect and 100 is complete control): Lambsquarters, preemergence; for Lambsquarters plant response rating (0 to 100): Preemergence, visual rating after 13 to 15 d
From the text: as §2

[5] = test system: morningglory; assay: Test C preemergence; format: in vivo, Ipomoea coccinea; conditions: for Plant response rating (scale of 0 to 100 where 0 is no effect and 100 is complete control): Morningglory, preemergence; for Morningglory plant response rating (0 to 100): Preemergence, visual rating after 13 to 15 d
From the text: as §2

[6] = test system: barnyardgrass; assay: Test C preemergence; format: in vivo, Echinochloa crus-galli; conditions: for Plant response rating (scale of 0 to 100 where 0 is no effect and 100 is complete control): Barnyardgrass, preemergence; for Barnyardgrass plant response rating (0 to 100): Preemergence, visual rating after 13 to 15 d
From the text: as §2

[7] = test system: velvetleaf; assay: Test C preemergence; format: in vivo, Abutilon theophrasti; conditions: for Velvetleaf plant response rating (0 to 100): Preemergence, visual rating after 13 to 15 d; for Plant response rating (scale of 0 to 100 where 0 is no effect and 100 is complete control): Velvetleaf, preemergence, 250 g ai/ha
From the text: as §2

| SMILES | pest or weed control at 125 g/ha [1] | pest or weed control at 500 g/ha [1] | pest or weed control at 125 g/ha [2] | pest or weed control at 500 g/ha [2] | Plant response rating (scale of 0 to 100 where 0 is no effect and 100 is complete control) ([3]; 125 g ai/ha) | Plant response rating (scale of 0 to 100 where 0 is no effect and 100 is complete control) ([3]; 250 g ai/ha) | Crabgrass, Large plant response rating (0 to 100) ([3]; 31 g ai/ha) | Crabgrass, Large plant response rating (0 to 100) ([3]; 62 g ai/ha) | Plant response rating (scale of 0 to 100 where 0 is no effect and 100 is complete control) ([4]; 125 g ai/ha) | Plant response rating (scale of 0 to 100 where 0 is no effect and 100 is complete control) ([4]; 250 g ai/ha) | Lambsquarters plant response rating (0 to 100) ([4]; 31 g ai/ha) | Lambsquarters plant response rating (0 to 100) ([4]; 62 g ai/ha) | Plant response rating (scale of 0 to 100 where 0 is no effect and 100 is complete control) ([5]; 125 g ai/ha) | Plant response rating (scale of 0 to 100 where 0 is no effect and 100 is complete control) ([5]; 250 g ai/ha) | Morningglory plant response rating (0 to 100) ([5]; 31 g ai/ha) | Morningglory plant response rating (0 to 100) ([5]; 62 g ai/ha) | Plant response rating (scale of 0 to 100 where 0 is no effect and 100 is complete control) ([6]; 125 g ai/ha) | Plant response rating (scale of 0 to 100 where 0 is no effect and 100 is complete control) ([6]; 250 g ai/ha) | Barnyardgrass plant response rating (0 to 100) ([6]; 31 g ai/ha) | Barnyardgrass plant response rating (0 to 100) ([6]; 62 g ai/ha) | also measured |
| --- | --- | --- | --- | --- | --- | --- | --- | --- | --- | --- | --- | --- | --- | --- | --- | --- | --- | --- | --- | --- | --- |
| Cn1nc(-c2ccc(F)cc2)nc1Oc1cccc(C(F)(F)F)c1 [Compound 5, 3-(4-fluorophenyl)-1-methyl-5-[3-(trifluoromethyl)phenoxy]-1H-1,2,4-triazole] | 70% | 100% | 50% | 100% |  |  |  |  |  |  |  |  |  |  |  |  |  |  |  |  |  |
| CCCc1nc(-c2ccc(F)cc2)nn1Cc1ccnc(C(F)(F)F)c1 [Compound 6, 4-[[3-(4-fluorophenyl)-5-propyl-1H-1,2,4-triazol-1-yl]methyl]-2-(trifluoromethyl)pyridine] | 100% | 100% | 100% | 100% | 100 | 100 | 100 | 100 | 98 | 98 | 98 | 98 | 75 | 100 | 45 | 60 | 95 | 98 | 50 | 75 | Velvetleaf plant response rating (0 to 100) ([7]; 31 g ai/ha): 20; Velvetleaf plant response rating (0 to 100) ([7]; 62 g ai/ha): 75; Plant response rating (scale of 0 to 100 where 0 is no effect and 100 is complete control) [7]: 100 |
| COc1nc(-c2ccc(F)cc2)nn1Cc1ccnc(C(F)(F)F)c1 [Compound 9, 4-[[3-(4-fluorophenyl)-5-methoxy-1H-1,2,4-triazol-1-yl]methyl]-2-(trifluoromethyl)pyridine] | 100% | 100% | 90% | 100% | 100 | 100 | 95 | 100 | 98 | 98 | 70 | 85 | 45 | 90 | 5 | 45 | 70 | 85 | 5 | 35 | Velvetleaf plant response rating (0 to 100) ([7]; 31 g ai/ha): 20; Velvetleaf plant response rating (0 to 100) ([7]; 62 g ai/ha): 25; Plant response rating (scale of 0 to 100 where 0 is no effect and 100 is complete control) [7]: 60 |
| Cn1nc(-c2ccc(F)cc2)nc1C(O)c1ccnc(C(F)(F)F)c1 (stereo not drawn) [Compound 14, α-[3-(4-fluorophenyl)-1-methyl-1H-1,2,4-triazol-5-yl]-2-(trifluoromethyl)-4-pyridinemethanol] | 60% | 100% | 40% | 80% |  |  |  |  |  |  |  |  |  |  |  |  |  |  |  |  |  |
| CCn1nc(-c2ccc(F)cc2)nc1C(O)c1ccnc(C(F)(F)F)c1 (stereo not drawn) [Compound 15, α-[1-Ethyl-3-(4-fluorophenyl)-1H-1,2,4-triazol-5-yl]-2-(trifluoromethyl)-4-pyridinemethanol] | 10% | 30% | 0% | 10% |  |  |  |  |  |  |  |  |  |  |  |  |  |  |  |  |  |
| CCCn1nc(-c2ccc(F)cc2)nc1Cc1ccnc(C(F)(F)F)c1 [Compound 17, 4-[[3-(4-fluorophenyl)-1-propyl-1H-1,2,4-triazol-5-yl]methyl]-2-(trifluoromethyl)pyridine] | 100% | 100% | 70% | 100% |  |  |  |  |  |  |  |  |  |  |  |  |  |  |  |  |  |
| CCn1nc(-c2ccc(F)cc2)nc1C(=O)c1ccnc(C(F)(F)F)c1 [Compound 19, [1-ethyl-3-(4-fluorophenyl)-1H-1,2,4-triazol-5-yl][2-(trifluoromethyl)-4-pyridinyl]methanone] | 0% | 50% | 0% | 0% |  |  |  |  |  |  |  |  |  |  |  |  |  |  |  |  |  |
| CS(=O)(=O)c1nc(-c2ccc(F)cc2)nn1Cc1ccnc(C(F)(F)F)c1 [Compound 29, 4-[[3-(4-fluorophenyl)-5-(methylsulfonyl)-1H-1,2,4-triazole-1-yl]methyl]-2-(trifluoromethyl)pyridine] | 0% | 0% | 0% | 0% |  |  |  |  |  |  |  |  |  |  |  |  |  |  |  |  |  |
| COc1nc(-c2ccccc2)nn1Cc1ccnc(C(F)(F)F)c1 [Compound 32] |  |  |  |  | 100 | 98 | 65 | 90 | 80 | 90 | 60 | 60 | 5 | 45 | 0 | 5 | 10 | 75 | 0 | 5 | Velvetleaf plant response rating (0 to 100) ([7]; 31 g ai/ha): 20; Velvetleaf plant response rating (0 to 100) ([7]; 62 g ai/ha): 10; Plant response rating (scale of 0 to 100 where 0 is no effect and 100 is complete control) [7]: 60 |
